Test results: patent US6358885B1, “Substituted phenylheterocyclic herbicides” (Mississippi State University, priority 1992, dated 2002)

Assays:
wheat = experiment: Test C preemergence/postemergence greenhouse plant response rating 0 to 100; format: in vivo, Triticum aestivum; settings: PREEMERGENCE
Text: (§1) The compounds evaluated in this test were formulated in a non-phytoxic solvent and applied to the soil surface before plant seedlings emerged (preemergence application), to water that covered the soil surface (flood application), and to plants that were in the one-to-four leaf stage (postemergence application). A sandy loam soil was used for the preemergence and postemergence tests, while a silt loam soil was used in the flood test. Water depth was approximately 2.5 cm for the flood test and was maintained at this level for the duration of the test. Plant species in the preemergence and postemergence tests consisted of barley (Hordeum vulgare), bedstraw (Galium aparine), blackgrass (Alopecurus myosuroides), chickweed (Stellaria media), corn (Zea mays), cotton (Gossypium hirsutum), crabgrass (Digitaria sanguinalis), downy brome (Bromus tectorum), giant foxtail (Setaria faberii), lambsquarters (Chenopodium album), morningglory (Ipomoea hederacea), pigweed ([…]), rape (Brassica napus), ryegrass (Lolium multiflorum), sorghum (Sorghum bicolor), soybean (Glycine max), speedwell (Veronica persica), sugar beet (Beta vulgaris), velvetleaf (Abutilon theophrasti), wheat (Triticum aestivum), wild buckwheat (Polygonum convolvulus), and wild oat (Avena fatua). All plant species were planted one day before application of the compound for the preemergence portion-of this test. Plantings of these species were adjusted to produce plants of appropriate size for the post-emergence portion of the test. […] All plant species were grown using normal greenhouse practices. Visual evaluations of injury expressed on treated plants, when compared to untreated controls, were recorded approximately fourteen to twenty one days after application of the test compound. […] A dash (-) response means no test result.

bedstraw = experiment: Test B preemergence/postemergence greenhouse plant response rating 0 to 10; format: in vivo, Galium aparine; settings: 0 to 10 scale
Method in brief: (§2)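 Postemergence treatment of plants two to eighteen cm tall ran alongside preemergence treatment of planted seed, each using compound in a non-phytotoxic solvent.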

wild buckwheat = experiment: as above; format: in vivo, Polygonum convolvulus; settings: 0 to 10 scale
Method in brief: as §2

corn = experiment: Test C preemergence/postemergence greenhouse plant response rating 0 to 100; format: in vivo, Zea mays; settings: PREEMERGENCE; for Plant response rating, Corn: 0 to 100 scale
Text: as §1

cocklebur = experiment: Test B preemergence/postemergence greenhouse plant response rating 0 to 10; format: in vivo, Xanthium pensylvanicum; settings: 0 to 10 scale
Method in brief: as §2

cheatgrass = experiment: as above; format: in vivo, Bromus secalinus; settings: 0 to 10 scale
Method in brief: as §2

sugar beet = experiment: Test C preemergence/postemergence greenhouse plant response rating 0 to 100; format: in vivo, Beta vulgaris; settings: PREEMERGENCE
Text: as §1

cotton = experiment: Test B preemergence/postemergence greenhouse plant response rating 0 to 10; format: in vivo, Gossypium hirsutum; settings: 0 to 10 scale
Method in brief: as §2

lambsquarters = experiment: Test C preemergence/postemergence greenhouse plant response rating 0 to 100; format: in vivo, Chenopodium album; settings: PREEMERGENCE; for Plant response rating Lambsquarters: 0 to 100 scale
Text: as §1

blackgrass [1] = experiment: as above; format: in vivo, Alopecurus myosuroides; settings: PREEMERGENCE; for Plant response rating, Blackgrass: 0 to 100 scale
Text: as §1

blackgrass [2] = experiment: Test B preemergence/postemergence greenhouse plant response rating 0 to 10; format: in vivo, Alopecurus myosuroides; settings: 0 to 10 scale
Method in brief: as §2

barley = experiment: as above; format: in vivo, Hordeum vulgare; settings: 0 to 10 scale
Method in brief: as §2

ryegrass = experiment: Test C preemergence/postemergence greenhouse plant response rating 0 to 100; format: in vivo, Lolium multiflorum; settings: PREEMERGENCE; for Plant response rating Ryegrass: 0 to 100 scale
Text: as §1

rape = experiment: as above; format: in vivo, Brassica napus; settings: PREEMERGENCE; for Plant response rating, Rape: 0 to 100 scale
Text: as §1

giant foxtail = experiment: as above; format: in vivo, Setaria faberii; settings: PREEMERGENCE; for Plant response rating, Giant foxtail: 0 to 100 scale
Text: as §1

rice = experiment: Test B preemergence/postemergence greenhouse plant response rating 0 to 10; format: in vivo, Oryza sativa; settings: 0 to 10 scale
Method in brief: as §2

## CCCN1C(=O)COc2cc(F)c(-c3nn4c(c3Br)CCCC4)cc21 [Compound 63]
wheat; 250 g/ha, 0 to 100 scale
  Plant response rating, Wheat: 50
wheat; Rate 4 g/ha
  Plant response rating (0 to 100), Wheat: 0
wheat; Rate 16 g/ha
  Plant response rating (0 to 100), Wheat: 0
bedstraw; POSTEMERGENCE, Rate 10 g/ha
  Plant response rating, Bedstraw: 6
bedstraw; POSTEMERGENCE, Rate 50 g/ha
  Plant response rating, Bedstraw: 8
bedstraw; PREEMERGENCE, Rate 10 g/ha
  Plant response rating, Bedstraw: 4
bedstraw; PREEMERGENCE, Rate 50 g/ha
  Plant response rating, Bedstraw: 10
Wild buckwheat; POSTEMERGENCE, Rate 10 g/ha
  Plant response rating, Wild buckwheat: 9
Wild buckwheat; POSTEMERGENCE, Rate 50 g/ha
  Plant response rating, Wild buckwheat: 10
Wild buckwheat; PREEMERGENCE, Rate 50 g/ha
  Plant response rating, Wild buckwheat: 10
corn; 62 g/ha
  Plant response rating, Corn: 20
corn; 250 g/ha
  Plant response rating, Corn: 30
corn; Rate 4 g/ha
  Plant response rating (0 to 100), Corn: 0
corn; Rate 16 g/ha
  Plant response rating (0 to 100), Corn: 0
cocklebur; POSTEMERGENCE, Rate 10 g/ha
  Plant response rating, Cocklebur: 8
cocklebur; POSTEMERGENCE, Rate 50 g/ha
  Plant response rating, Cocklebur: 9
cocklebur; PREEMERGENCE, Rate 10 g/ha
  Plant response rating, Cocklebur: 0
cocklebur; PREEMERGENCE, Rate 50 g/ha
  Plant response rating, Cocklebur: 0
cheatgrass; POSTEMERGENCE, Rate 10 g/ha
  Plant response rating, Cheatgrass: 4
cheatgrass; POSTEMERGENCE, Rate 50 g/ha
  Plant response rating, Cheatgrass: 4
cheatgrass; PREEMERGENCE, Rate 10 g/ha
  Plant response rating, Cheatgrass: 2
cheatgrass; PREEMERGENCE, Rate 50 g/ha
  Plant response rating, Cheatgrass: 2
Sugar beet; 250 g/ha, 0 to 100 scale
  Plant response rating, Sugar beet: 100
Sugar beet; Rate 4 g/ha
  Plant response rating (0 to 100), Sugar beet: 10
Sugar beet; Rate 16 g/ha
  Plant response rating (0 to 100), Sugar beet: 100
cotton; POSTEMERGENCE, Rate 10 g/ha
  Plant response rating, Cotton: 9
cotton; POSTEMERGENCE, Rate 50 g/ha
  Plant response rating, Cotton: 10
cotton; PREEMERGENCE, Rate 10 g/ha
  Plant response rating, Cotton: 0
cotton; PREEMERGENCE, Rate 50 g/ha
  Plant response rating, Cotton: 2
lambsquarters; 62 g/ha
  Plant response rating Lambsquarters: 95
lambsquarters; 250 g/ha
  Plant response rating Lambsquarters: 100
lambsquarters; Rate 4 g/ha
  Plant response rating (0 to 100), Lambsquarters: 10
lambsquarters; Rate 16 g/ha
  Plant response rating (0 to 100), Lambsquarters: 20
Blackgrass [1]; 62 g/ha
  Plant response rating, Blackgrass: 50
Blackgrass [1]; 250 g/ha
  Plant response rating, Blackgrass: 90
Blackgrass [1]; Rate 4 g/ha
  Plant response rating (0 to 100), Blackgrass: 10
Blackgrass [1]; Rate 16 g/ha
  Plant response rating (0 to 100), Blackgrass: 30
Blackgrass [2]; POSTEMERGENCE, Rate 10 g/ha
  Plant response rating, Blackgrass: 4
Blackgrass [2]; POSTEMERGENCE, Rate 50 g/ha
  Plant response rating, Blackgrass: 4
Blackgrass [2]; PREEMERGENCE, Rate 10 g/ha
  Plant response rating, Blackgrass: 0
Blackgrass [2]; PREEMERGENCE, Rate 50 g/ha
  Plant response rating, Blackgrass: 3
barley; POSTEMERGENCE, Rate 10 g/ha
  Plant response rating, Barley: 4
barley; POSTEMERGENCE, Rate 50 g/ha
  Plant response rating, Barley: 5
barley; PREEMERGENCE, Rate 10 g/ha
  Plant response rating, Barley: 0
barley; PREEMERGENCE, Rate 50 g/ha
  Plant response rating, Barley: 0
ryegrass; 62 g/ha
  Plant response rating Ryegrass: 40
ryegrass; 250 g/ha
  Plant response rating Ryegrass: 80
ryegrass; Rate 4 g/ha
  Plant response rating (0 to 100), Ryegrass: 0
ryegrass; Rate 16 g/ha
  Plant response rating (0 to 100), Ryegrass: 0
rape; 62 g/ha
  Plant response rating, Rape: 85
rape; 250 g/ha
  Plant response rating, Rape: 100
rape; Rate 4 g/ha
  Plant response rating (0 to 100), Rape: 0
rape; Rate 16 g/ha
  Plant response rating (0 to 100), Rape: 20
Giant foxtail; 62 g/ha
  Plant response rating, Giant foxtail: 20
Giant foxtail; 250 g/ha
  Plant response rating, Giant foxtail: 75
Giant foxtail; Rate 4 g/ha
  Plant response rating (0 to 100), Giant foxtail: 0
Giant foxtail; Rate 16 g/ha
  Plant response rating (0 to 100), Giant foxtail: 0
rice; POSTEMERGENCE, Rate 10 g/ha
  Plant response rating, Rice: 3
rice; POSTEMERGENCE, Rate 50 g/ha
  Plant response rating, Rice: 5
rice; PREEMERGENCE, Rate 50 g/ha
  Plant response rating, Rice: 0
